Test results taken from ChEMBL document CHEMBL3045868, “Synthesis and antibacterial activities of para-alkoxy phenyl--ketoaldehyde derivatives” (Med Chem Res, 2013).
Values after ≈ are worked out from the molar mass of the structure shown.

Legend:
Pseudomonas aeruginosa = test: Antibacterial activity against Pseudomonas aeruginosa ATCC 27853 assessed as growth inhibition after 16 to 18 hr NCCLS agar dilution method; format: functional
Escherichia coli = test: Antibacterial activity against Escherichia coli ATCC 25922 assessed as growth inhibition after 16 to 18 hr NCCLS agar dilution method; format: functional
Staphylococcus aureus = test: Antibacterial activity against Staphylococcus aureus ATCC 25923 assessed as growth inhibition after 16 to 18 hr by NCCLS agar dilution method; format: functional
Helicobacter pylori [1] = test: Antibacterial activity against Helicobacter pylori 06-8 assessed as growth inhibition after 16 to 18 hr NCCLS agar dilution method; format: functional
Helicobacter pylori [2] = test: Antibacterial activity against Helicobacter pylori 06-7 assessed as growth inhibition after 16 to 18 hr NCCLS agar dilution method; format: functional
Helicobacter pylori [3] = test: Antibacterial activity against Helicobacter pylori 05-14 assessed as growth inhibition after 16 to 18 hr NCCLS agar dilution method; format: functional
Helicobacter pylori [4] = test: Antibacterial activity against Helicobacter pylori 05-12 assessed as growth inhibition after 16 to 18 hr NCCLS agar dilution method; format: functional
Helicobacter pylori [5] = test: Antibacterial activity against Helicobacter pylori 05-9 assessed as growth inhibition after 16 to 18 hr NCCLS agar dilution method; format: functional
Helicobacter pylori [6] = test: Antibacterial activity against Helicobacter pylori 05-5 assessed as growth inhibition after 16 to 18 hr NCCLS agar dilution method; format: functional
Helicobacter pylori [7] = test: Antibacterial activity against Helicobacter pylori 05-4 assessed as growth inhibition after 16 to 18 hr NCCLS agar dilution method; format: functional, 05-Apr
Helicobacter pylori [8] = test: Antibacterial activity against Helicobacter pylori 05-2 assessed as growth inhibition after 16 to 18 hr NCCLS agar dilution method; format: functional
Helicobacter pylori [9] = test: Antibacterial activity against Helicobacter pylori 05-1 assessed as growth inhibition after 16 to 18 hr NCCLS agar dilution method; format: functional
Helicobacter pylori [10] = test: Antibacterial activity against Helicobacter pylori ATCC 11637 assessed as growth inhibition after 16 to 18 hr NCCLS agar dilution method; format: functional
Helicobacter pylori [11] = test: Antibacterial activity against Helicobacter pylori 06-6 assessed as growth inhibition after 16 to 18 hr NCCLS agar dilution method; format: functional
Helicobacter pylori [12] = test: Antibacterial activity against Helicobacter pylori 06-5 assessed as growth inhibition after 16 to 18 hr NCCLS agar dilution method; format: functional
Helicobacter pylori [13] = test: Antibacterial activity against Helicobacter pylori 06-4 assessed as growth inhibition after 16 to 18 hr NCCLS agar dilution method; format: functional
Helicobacter pylori [14] = test: Antibacterial activity against Helicobacter pylori 06-3 assessed as growth inhibition after 16 to 18 hr NCCLS agar dilution method; format: functional
Helicobacter pylori [15] = test: Antibacterial activity against Helicobacter pylori 06-2 assessed as growth inhibition after 16 to 18 hr NCCLS agar dilution method; format: functional
Helicobacter pylori [16] = test: Antibacterial activity against Helicobacter pylori 06-1 assessed as growth inhibition after 16 to 18 hr NCCLS agar dilution method; format: functional
Helicobacter pylori [17] = test: Antibacterial activity against Helicobacter pylori 05-3 assessed as growth inhibition after 16 to 18 hr NCCLS agar dilution method; format: functional
Helicobacter pylori [18] = test: Antibacterial activity against Helicobacter pylori assessed as growth inhibition after 16 to 18 hr NCCLS agar dilution method; format: functional

Structure (SMILES)	MIC (Pseudomonas aeruginosa)	MIC (Escherichia coli)	MIC (Staphylococcus aureus)	MIC (Helicobacter pylori [1])	MIC (Helicobacter pylori [2])	MIC (Helicobacter pylori [3])	MIC (Helicobacter pylori [4])	MIC (Helicobacter pylori [5])	MIC (Helicobacter pylori [6])	MIC (Helicobacter pylori [7])	MIC (Helicobacter pylori [8])	MIC (Helicobacter pylori [9])	MIC (Helicobacter pylori [10])	MIC (Helicobacter pylori [11])	MIC (Helicobacter pylori [12])	MIC (Helicobacter pylori [13])	MIC (Helicobacter pylori [14])	MIC (Helicobacter pylori [15])	MIC (Helicobacter pylori [16])	MIC (Helicobacter pylori [17])	also measured
CCO/N=C/CC(=O)c1ccc(OC)cc1	> 64 µg/mL	> 64 µg/mL	4 µg/mL (≈ 18.1 µM)																		
CO/N=C(/C/C=N/OC)c1ccc(OC)cc1	> 64 µg/mL	> 64 µg/mL	> 64 µg/mL																		
CCO/N=C(/C/C=N/OCC)c1ccc(OC)cc1	> 64 µg/mL	> 64 µg/mL	> 64 µg/mL																		
COc1ccc(C(=O)C/C=N/NC(N)=O)cc1	> 64 µg/mL	> 64 µg/mL	> 64 µg/mL	> 128 µg/mL	128 µg/mL (≈ 544 µM)	> 128 µg/mL	> 128 µg/mL	> 128 µg/mL	> 128 µg/mL	> 128 µg/mL	> 128 µg/mL	> 128 µg/mL	> 128 µg/mL	128 µg/mL (≈ 544 µM)	> 128 µg/mL	> 128 µg/mL	> 128 µg/mL	> 128 µg/mL	> 128 µg/mL	> 128 µg/mL	MIC50 (Helicobacter pylori [18]): > 128 µg/mL; MIC90 (Helicobacter pylori [18]): > 128 µg/mL
COc1ccc(C(=O)C/C=N/NC(N)=S)cc1	> 64 µg/mL	> 64 µg/mL	> 64 µg/mL	> 128 µg/mL	128 µg/mL (≈ 509 µM)	> 128 µg/mL	> 128 µg/mL	> 128 µg/mL	> 128 µg/mL	> 128 µg/mL	> 128 µg/mL	> 128 µg/mL	> 128 µg/mL	128 µg/mL (≈ 509 µM)	> 128 µg/mL	> 128 µg/mL	> 128 µg/mL	> 128 µg/mL	> 128 µg/mL	> 128 µg/mL	MIC50 (Helicobacter pylori [18]): > 128 µg/mL; MIC90 (Helicobacter pylori [18]): > 128 µg/mL
CCOc1ccc(C(=O)C/C=N/OC)cc1	> 64 µg/mL	> 64 µg/mL	32 µg/mL (≈ 145 µM)																		
CCO/N=C/CC(=O)c1ccc(OCC)cc1	> 64 µg/mL	> 64 µg/mL	64 µg/mL (≈ 272 µM)																		
CCOc1ccc(/C(C/C=N/OC)=N\OC)cc1	> 64 µg/mL	> 64 µg/mL	> 64 µg/mL																		
CCO/N=C(/C/C=N/OCC)c1ccc(OCC)cc1	> 64 µg/mL	> 64 µg/mL	> 64 µg/mL																		
CO/N=C/CC(=O)c1ccc(OC(C)C)cc1	> 64 µg/mL	> 64 µg/mL	> 64 µg/mL																		
CCO/N=C/CC(=O)c1ccc(OC(C)C)cc1	> 64 µg/mL	> 64 µg/mL	> 64 µg/mL																		
CO/N=C(/C/C=N/OC)c1ccc(OC(C)C)cc1	> 64 µg/mL	> 64 µg/mL	> 64 µg/mL																		
CCO/N=C(/C/C=N/OCC)c1ccc(OC(C)C)cc1	> 64 µg/mL	> 64 µg/mL	> 64 µg/mL																		
CCCCOc1ccc(C(=O)C/C=N/OC)cc1	64 µg/mL (≈ 257 µM)	> 64 µg/mL	> 64 µg/mL																		
CCCCOc1ccc(C(=O)C/C=N/OCC)cc1	> 64 µg/mL	> 64 µg/mL	> 64 µg/mL																		
CCCCOc1ccc(/C(C/C=N/OCC)=N\OCC)cc1	> 64 µg/mL	> 64 µg/mL	> 64 µg/mL																		
COc1ccc(C(=O)/C=C\O)cc1	> 64 µg/mL	> 64 µg/mL	> 64 µg/mL	> 128 µg/mL	128 µg/mL (≈ 718 µM)	> 128 µg/mL	> 128 µg/mL	> 128 µg/mL	> 128 µg/mL	> 128 µg/mL	> 128 µg/mL	> 128 µg/mL	128 µg/mL (≈ 718 µM)	128 µg/mL (≈ 718 µM)	128 µg/mL (≈ 718 µM)	128 µg/mL (≈ 718 µM)	> 128 µg/mL	> 128 µg/mL	> 128 µg/mL	> 128 µg/mL	MIC50 (Helicobacter pylori [18]): > 128 µg/mL; MIC90 (Helicobacter pylori [18]): > 128 µg/mL
COc1ccc(C(=O)CC(O)S(=O)(=O)[O-])cc1.[Na+] (stereo not drawn)	> 64 µg/mL	> 64 µg/mL	> 64 µg/mL	> 128 µg/mL	> 128 µg/mL	> 128 µg/mL	> 128 µg/mL	> 128 µg/mL	> 128 µg/mL	> 128 µg/mL	> 128 µg/mL	> 128 µg/mL	> 128 µg/mL	> 128 µg/mL	> 128 µg/mL	> 128 µg/mL	> 128 µg/mL	> 128 µg/mL	> 128 µg/mL	> 128 µg/mL	MIC50 (Helicobacter pylori [18]): > 128 µg/mL; MIC90 (Helicobacter pylori [18]): > 128 µg/mL
COc1ccc(C(=O)C/C=N/O)cc1	> 64 µg/mL	> 64 µg/mL	4 µg/mL (≈ 20.7 µM)	> 128 µg/mL	64 µg/mL (≈ 331 µM)	> 128 µg/mL	> 128 µg/mL	> 128 µg/mL	> 128 µg/mL	> 128 µg/mL	> 128 µg/mL	> 128 µg/mL	64 µg/mL (≈ 331 µM)	64 µg/mL (≈ 331 µM)	64 µg/mL (≈ 331 µM)	> 128 µg/mL	64 µg/mL (≈ 331 µM)	> 128 µg/mL	64 µg/mL (≈ 331 µM)	> 128 µg/mL	MIC50 (Helicobacter pylori [18]): > 128 µg/mL; MIC90 (Helicobacter pylori [18]): > 128 µg/mL
CC[C@H]1OC(=O)[C@H](C)[C@@H](O[C@H]2C[C@@](C)(OC)[C@@H](O)[C@H](C)O2)[C@H](C)[C@@H](O[C@@H]2O[C@H](C)C[C@H](N(C)C)[C@H]2O)[C@](C)(OC)C[C@@H](C)C(=O)[C@H](C)[C@@H](O)[C@]1(C)O [CLARITHROMYCIN]	> 64 µg/mL	32 µg/mL (≈ 42.8 µM)	0.12 µg/mL (≈ 0.16 µM)	> 128 µg/mL	128 µg/mL (≈ 171 µM)	> 128 µg/mL	> 128 µg/mL	> 128 µg/mL	> 128 µg/mL	> 128 µg/mL	64 µg/mL (≈ 85.6 µM)	> 128 µg/mL	32 µg/mL (≈ 42.8 µM)	128 µg/mL (≈ 171 µM)	> 128 µg/mL	> 128 µg/mL	> 128 µg/mL	> 128 µg/mL	64 µg/mL (≈ 85.6 µM)	64 µg/mL (≈ 85.6 µM)	MIC50 (Helicobacter pylori [18]): > 128 µg/mL; MIC90 (Helicobacter pylori [18]): > 128 µg/mL
Cc1ncc([N+](=O)[O-])n1CCO [METRONIDAZOLE]				> 128 µg/mL	> 128 µg/mL	> 128 µg/mL	> 128 µg/mL	> 128 µg/mL	> 128 µg/mL	> 128 µg/mL	> 128 µg/mL	> 128 µg/mL	32 µg/mL (≈ 187 µM)	> 128 µg/mL	> 128 µg/mL	> 128 µg/mL	> 128 µg/mL	> 128 µg/mL	> 128 µg/mL	> 128 µg/mL	MIC50 (Helicobacter pylori [18]): > 128 µg/mL; MIC90 (Helicobacter pylori [18]): > 128 µg/mL
